Where two headings read alike, the source gives them in different places. Positions of bridges follow the written chain, without caps; N, C: chain ends. Non-standard residues stand in square brackets, D forms with d. Residues, ends and D or L forms follow the SMILES beside them. No end group written: not given here. *: point of attachment. dAoc(2) = CCCCCC[C@@H](N)C(=O)O; Lauroyl = CCCCCCCCCCCC(=O)*; Decanoyl = CCCCCCCCCC(=O)*; X1 = CC[C@H](C)CCCCC(=O)*; Heptanoyl = CCCCCCC(=O)*; Nle = CCCC[C@H](N)C(=O)O; Dab = NCC[C@H](N)C(=O)O
How the values were obtained:
[1] = tested on: Escherichia coli ATTC 25922; assay type: cell-based
[2] = tested on: Pseudomonas aeruginosa ATTC 27853; assay type: cell-based
[3] = tested on: Staphylococcus aureus ATTC 25923; assay type: cell-based
[4] = tested on: fresh rabbit erythrocytes; test: Hemolysis assay; assay type: cell-based; conditions: 335 μM lipopeptide, 1 h at 37 °C, 10 mM Tris 80 mM NaCl pH 7.4, absorbance 540 nm, average of three independent experiments
Method: Hemolytic activity was evaluated on fresh rabbit erythrocytes collected in EDTA collection tubes, as previously described. Briefly, an erythrocite suspension in buffer (10 mM Tris, 80 mM NaCl pH 7.4) was obtained by centrifugation (three times, 10 min at 4000 rpm) and adjusted at an optical density of 1 at 540 nm. Aliquots of 200 µL were incubated for 1 h at 37 °C with the different lipopeptides in 96-well polypropylene microtiter plates and centrifuged (15 min, 5000 rpm). Lipopetide-induced hemolysis was determined by measuring the absorbance at 540 nm of released hemoglobin (Asample) in the supernatant. Each determination was done by triplicate, and as negative and positive controls, erythrocytes in buffer (A0%) and in distilled water (A100%) were employed, respectively. Hemolysis was calculated according the following equation: % hemolysis = 100 · (Asample − A0%/A100% − A0%).

[5] = Kinetics of insertion into monolayers; assay type: binding, Salmonella enterica serotype Minnesota Re 595; conditions: initial pressure 32 mN·m^−1, peptide 0.48 μM, 25 min after injection, 10 mM Tris pH 7.4, 25 °C, average of three independent experiments (error < 10%)
[6] = Kinetics of insertion into monolayers; assay type: binding; conditions: 25 min after injection, 10 mM Tris pH 7.4, 25 °C, average of three independent experiments (error < 10%); for Increase in surface pressure (Δπ), POPE/POPG: POPE/POPG 6:4, initial pressure 32 mN·m^−1, peptide 0.48 μM; for Increase in surface pressure (Δπ), POPC / Increase in surface pressure (Δπ), POPG: initial pressure 32 mN·m^−1, peptide 0.48 μM
[7] = FRET lipid mixing (NBD-PE/Rh-PE); conditions: 1:1 vesicles with 0.6% NBD-PE or Rh-PE, total lipid 107 μM, 25 °C, 10 mM Tris pH 7.4
Method: (§1) Large unilamellar vesicles (LUVs) of POPG, POPE/POPG (6:4), or POPC, alone or with the fluorescently labeled phospholipids NBD-PE or Rh-PE, were prepared by the evaporation of a mixture of the lipids and probes in CHCl3. The solvent was removed by a gentle stream of nitrogen gas followed by overnight storage under vacuum. The dried films were hydrated with Tris 10 mM pH 7.4 to the desired final lipid concentration and then sonicated in a bath type sonicator (Lab Supplies, Hickesville, NY, Model G112SPIT) until a clear dispersion was obtained (typically 3–5 min). […] The average diameter was determined by dynamic light scattering with a Malvern II-C Autosizer, with a z-diameter between 111 and 117 nm, and a polydispersity of 0.1. […] Moreover, they contained 0.2% Rh-PE for monitoring the fluorescence before and after the separation of the unencapsulated material, which was carried out by gel filtration on a Sephadex G-50 column eluted with 10 mM Tris 80 mM NaCl. In this way, the final lipid concentration was calculated taking into account the loss of lipid and the dilution of the sample.
Peptide-induced lipid mixing of vesicles of different composition was investigated in the same spectrofluorimeter, measuring the increase in fluorescence resonance energy transfer (FRET) from an NBD-PE donor population to an Rh-PE acceptor population. […]

ANTS/DPX vesicle leakage = conditions: 0.9 µM peptide (0.8% peptide mol fraction), lipid 107 µM, 25 °C, 10 mM Tris pH 7.4, ANTS fluorescence
Method: as §1
To assess the leakage of co-encapsulated ANTS and DPX vesicles due to their interaction with peptides, fluorescence measurements were carried out at 25 °C in 1.5 mL 10 mM Tris buffer pH 7.4 on a SLM-Aminco AB-2 spectrofluorimeter with constant stirring. […]

P. aeruginosa = test: Transmission electron microscopy of treated bacteria; assay type: cell-based, Pseudomonas aeruginosa; conditions: 1xMIC, 2 h, room temperature, tryptone water
Method: (§2) Then, 500 µL of this culture were added to 50 mL of tryptone water for a concentration of ≈10^8 bacteria·mL^−1. Aliquots of 10 mL were incubated with the lipopeptide at the desired concentration for 2 h at room temperature, and bacterial cells were collected by centrifugation (12,857 g, 20 min). Samples were fixed with 2.5% glutaraldehyde in phosphate buffer for 2 h at 4 °C, washed with the same buffer, and post fixed with 1% osmium tetroxide in buffer containing 0.8% potassium ferricyanide at 4 °C. Then, the samples were dehydrated for 1 h in acetone, infiltrated in a graded series of Epon resin (Ted pella, Inc., Redding, CA, USA) during 2 days, and finally embedded in fresh Epon resin and polymerized at 60 °C during 48 h. Ultrathin sections were obtained using a Leica Ultracut UCT ultramicrotome (Leica, Vienna, Austria) and mounted on Formvar-coated copper grids. Sections were stained with 2% aqueous uranyl acetate and lead citrate and examined in a JEM-1010 electron microscope (Jeol, Tokyo, Japan).

E. coli = test: as above; assay type: cell-based, Escherichia coli; conditions: 1xMIC, 2 h, room temperature, tryptone water
Method: as §2

S. aureus = test: as above; assay type: cell-based, Staphylococcus aureus; conditions: 1xMIC, 120 min, tryptone water
Method: as §2

[8] = tested on: Escherichia coli ATTC 25922; conditions: cited from earlier work
Method: Table 1 Sequences and antimicrobial activities of the synthesized peptides determined as minimal inhibitory concentration (MIC) calculated for different bacteria strains. | column: MIC/µg mL^−1 (µM) / EC ^1 || Figure 3 Comparative TEM micrographs of P. aeruginosa (left) and E. coli (right). Untreated bacteria (a,b); bacteria treated with polymyxin analogues at 1xMIC: P. aeruginosa with spB-3 (4 μg·mL^−1) (c), or with of spE-10 (1 μg·mL^−1) (e); E. coli treated with spB-3 (2 μg·mL^−1) (d) or spE-10 (8 μg·mL^−1) (f). Lipopeptides cause the alteration of the membranes, with blebs protruding, loss of membrane, clear cytoplasmic zones, and even ghost cells. Similar results are obtained with natural PxB ((g,h), this last one is adapted from (Rabanal et al. Sci. Rep. 2015).

[9] = tested on: Pseudomonas aeruginosa ATTC 27853; conditions: cited from earlier work
Method: C6 analogues are devoid of antibacterial effect both against Gram-positive and Gram-negative bacteria, with MICs higher than 32 μg·mL^−1. C8 analogues show some activity, especially against P. aeruginosa but not on Gram-positive S. aureus. […] For example, MIC of 4 μg·mL^−1 and 2 μg·mL^−1 against P. aeruginosa for spB-3 and spE-3 respectively are obtained, where ... || Figure 3 Comparative TEM micrographs of P. aeruginosa (left) and E. coli (right). Untreated bacteria (a,b); bacteria treated with polymyxin analogues at 1xMIC: P. aeruginosa with spB-3 (4 μg·mL^−1) (c), or with of spE-10 (1 μg·mL^−1) (e); E. coli treated with spB-3 (2 μg·mL^−1) (d) or spE-10 (8 μg·mL^−1) (f). Lipopeptides cause the alteration of the membranes, with blebs protruding, loss of membrane, clear cytoplasmic zones, and even ghost cells. Similar results are obtained with natural PxB ((g,h), this last one is adapted from (Rabanal et al. Sci. Rep. 2015).

[10] = tested on: Staphylococcus aureus ATTC 25923; conditions: cited from earlier work
Method: C6 analogues are devoid of antibacterial effect both against Gram-positive and Gram-negative bacteria, with MICs higher than 32 μg·mL^−1. C8 analogues show some activity, especially against P. aeruginosa but not on Gram-positive S. aureus. […] For example, MIC of 4 μg·mL^−1 and 2 μg·mL^−1 against P. aeruginosa for spB-3 and spE-3 respectively are obtained, where ... || Since some of the polymyxin analogues also have good activities against S. aureus, the effects on the cell morphology of this Gram-positive bacteria were determined.

[11] = broth microdilution, MHB, 5 × 10^5 CFU/mL, overnight 37 °C, triplicate, higher of the three
[12] = value in brackets, broth microdilution, MHB, overnight 37 °C, triplicate
[13] = taken from the literature (analogues #37, #38, #39)
[14] = value in brackets, taken from the literature

Molecule | MIC EC [1, 11] [µg/mL] | MIC PA [2, 11] [µg/mL] | MIC SA [3, 11] [µg/mL] | Increase in surface pressure (Δπ), LPS [5] [mN·m^−1] | Increase in surface pressure (Δπ), POPE/POPG [6] [mN·m^−1] | Increase in surface pressure (Δπ), POPC [6] [mN·m^−1] | Increase in surface pressure (Δπ), POPG [6] [mN·m^−1] | ultrastructural effect on P. aeruginosa (TEM) (P. aeruginosa) | ultrastructural effect on E. coli (TEM) (E. coli) | ultrastructural effect on S. aureus (TEM) (S. aureus) | MIC EC [8, 13] [µg/mL] | MIC EC [8, 14] [µM] | MIC PA [9, 13] [µg/mL] | MIC PA [9, 14] [µM] | MIC SA [10, 13] [µg/mL] | MIC SA [10, 14] [µM] | other results
CC[C@H](C)CCCCC(=O)N[C@@H](CCN)C(=O)N[C@H](C(=O)N[C@@H](CCN)C(=O)N[C@H]1CCNC(=O)[C@H]([C@@H](C)O)NC(=O)[C@H](CCN)NC(=O)[C@H](CCN)NC(=O)[C@H](CC(C)C)NC(=O)[C@@H](CC(C)C)NC(=O)[C@H](CCN)NC1=O)[C@@H](C)O [PxE, Polymyxin E, reference compound] (X1-[Dab]T[Dab][Dab][Dab][dL]L[Dab][Dab]T; lactam 4-C) | 1 | 0.5 | > 32 | 11.1 | 7.9 | 0.8 | 5.3 | – | – | – | – | – | – | – | – | – | MIC EC [1, 12]: 0.86 µM; MIC PA [2, 12]: 0.43 µM; MIC SA [3, 12]: > 27 µM; hemolysis [4]: 13%; lipid mixing (increase in FRET) [7]: no representative changes
CCCCCCC(=O)N[C@@H](CCN)C(=O)N[C@H](C(=O)N[C@@H](CCN)C(=O)N[C@H]1CSSC[C@H](C(N)=O)NC(=O)[C@H](CCN)NC(=O)[C@H](CCN)NC(=O)[C@H](CCCC)NC(=O)[C@@H](CCCCCC)NC(=O)[C@H](CCN)NC1=O)[C@@H](C)O [spE-10] (Heptanoyl-[Dab]T[Dab]C[Dab][dAoc(2)][Nle][Dab][Dab][dC]-NH2; disulfide 4-10) | 8 | 1 | > 32 | 14.8 | 8.2 | 1.8 | – | significant rupture of the cell membranes and cytoplasmic clear zones | formation of intracellular membranous structures and cytoplasmic clear zones | – | – | – | – | – | – | – | MIC EC ([1]; ATTC 25922): 6.7 µM; MIC PA ([2]; ATTC 27853): 0.84 µM; MIC SA ([3]; ATTC 25923): > 27 µM; leakage from PE/PG vesicles (ANTS/DPX vesicle leakage): no detectable leakage
Decanoyl-[Dab]T[Dab]C[Dab]FL[Dab][Dab]C (disulfide 4-10 (inferred)) [spB-3, the C10 analogue of PxB] | – | – | – | 11.0 | 6.0 | 2.0 | 6.2 | formation of blebs that protrude from the outer membrane | extensive bleb formation | formation of spherical mesosome-like intracellular structures and membranous inclusion bodies together with deformation of the cell envelope | 2 | 1.6 | 4 | 3.2 | 8 | 6.5 | –
Lauroyl-[Dab]T[Dab]C[Dab]F[Nle][Dab][Dab]C (disulfide 4-10 (inferred)) [spB-8, the C12/Nle7 derivative] | – | – | – | 11.2 | 6.2 | 1.7 | 3.8 | – | – | Even more disruptive effects | 4 | 3.2 | 1 | 0.79 | 2 | 1.58 | –

From article PMC8708274, “Unveiling the Membrane and Cell Wall Action of Antimicrobial Cyclic Lipopeptides: Modulation of the Spectrum of Activity” (Pharmaceutics, 2021)
